According to patent US20220054513A1, “COMBINATION COMPOSITIONS COMPRISING A BETA-LACTAMASE INHIBITOR” (VenatoRx Pharmaceuticals, Inc., priority 2018, published 2022):
Read-outs that look alike come from different tables or passages of the source.

Assays:
MDR-Pseudomonas = experiment: broth microdilution MIC of cefiderocol +/- Compound 1 in IDM, panel of 16 MDR Pseudomonas aeruginosa; type: cell-based, P. aeruginosa; details: for MIC: Pseudomonas aeruginosa, read-out: Minimum inhibitory concentration (MIC)
[1] = system: β-lactamase expressing E. coli; experiment: broth microdilution MIC of cefiderocol +/- Compound 1, E. coli strains; type: cell-based; details: Escherichia coli
[2] = system: β-lactamase expressing E. cloacae; experiment: broth microdilution MIC of cefiderocol +/- Compound 1, E. cloacae strains; type: cell-based; details: Enterobacter cloacae
[3] = system: β-lactamase expressing Enterobacteriaceae; experiment: broth microdilution MIC of cefiderocol +/- Compound 1, panel of 30 Enterobacteriaceae strains (MIC50/MIC90); type: cell-based
[4] = system: β-lactamase expressing K. pneumoniae; experiment: broth microdilution MIC of cefiderocol +/- Compound 1, K. pneumoniae strains; type: cell-based; details: Klebsiella pneumoniae
[5] = panel of 16 MDR Pseudomonas aeruginosa, IDM

## CC(C)(O/N=C(\C(=O)N[C@@H]1C(=O)N2C(C(=O)[O-])=C(C[N+]3(CCNC(=O)c4ccc(O)c(O)c4Cl)CCCC3)CS[C@H]12)c1csc(N)n1)C(=O)O [FDC, cefiderocol]
MDR-Pseudomonas; P. aeruginosa 40, IDM
  MIC: 4 µg/mL
MDR-Pseudomonas; P. aeruginosa 451, IDM
  MIC: 4 µg/mL
MDR-Pseudomonas; P. aeruginosa 635, IDM
  MIC: 0.5 µg/mL
MDR-Pseudomonas; P. aeruginosa 152021, IDM
  MIC: 0.25 µg/mL
MDR-Pseudomonas; P. aeruginosa 1013996, IDM
  MIC: 0.25 µg/mL
MDR-Pseudomonas; P. aeruginosa 1121828, IDM
  MIC: 1 µg/mL
MDR-Pseudomonas; P. aeruginosa 1131170, IDM
  MIC: 2 µg/mL
MDR-Pseudomonas; P. aeruginosa 1179543, IDM
  MIC: 2 µg/mL
MDR-Pseudomonas; P. aeruginosa CDC-0054, IDM
  MIC: 0.5 µg/mL
MDR-Pseudomonas; P. aeruginosa CDC-0064, IDM
  MIC: 0.5 µg/mL
MDR-Pseudomonas; P. aeruginosa CDC-0095, IDM
  MIC: 0.059 µg/mL
MDR-Pseudomonas; P. aeruginosa CDC-0103, IDM
  MIC: 4 µg/mL
MDR-Pseudomonas; P. aeruginosa CDC-0108, IDM
  MIC: 0.25 µg/mL
MDR-Pseudomonas; P. aeruginosa CDC-0110, IDM
  MIC: 8 µg/mL
MDR-Pseudomonas; P. aeruginosa CDC-0111, IDM
  MIC: 0.059 µg/mL
MDR-Pseudomonas
  MIC: 0.125 µg/mL
MDR-Pseudomonas; [5]
  MIC50: 0.5 µg/mL
  MIC90: 4 µg/mL
[1]; read-out: Minimum inhibitory concentration (MIC), E. coli 128 (AmpC, SHV-12, TOHO-2, TEM-1), IDM
  MIC: 0.5 µg/mL
[1]; read-out: Minimum inhibitory concentration (MIC), E. coli 128 (AmpC, SHV-12, TOHO-2, TEM-1), MHBII
  MIC: 2 µg/mL
[1]; read-out: Minimum inhibitory concentration (MIC), E. coli 3073 (AmpC, CTX-M3), IDM
  MIC: 0.5 µg/mL
[1]; read-out: Minimum inhibitory concentration (MIC), E. coli 3073 (AmpC, CTX-M3), MHBII
  MIC: 8 µg/mL
[1]; read-out: Minimum inhibitory concentration (MIC), E. coli 3327 (TEM-1, SHV-12), IDM
  MIC: 0.125 µg/mL
[1]; read-out: Minimum inhibitory concentration (MIC), E. coli 3327 (TEM-1, SHV-12), MHBII
  MIC: 0.5 µg/mL
[1]; read-out: Minimum inhibitory concentration (MIC), E. coli 786978 (KPC 2), IDM
  MIC: 0.25 µg/mL
[1]; read-out: Minimum inhibitory concentration (MIC), E. coli 786978 (KPC 2), MHBII
  MIC: 4 µg/mL
[1]; read-out: Minimum inhibitory concentration (MIC), E. coli 787112 (OXA 48), IDM
  MIC: 64 µg/mL
[1]; read-out: Minimum inhibitory concentration (MIC), E. coli 787112 (OXA 48), MHBII
  MIC: 64 µg/mL
[1]; read-out: Minimum inhibitory concentration (MIC), E. coli CDC-61 (KPC-3 TEM-1), IDM
  MIC: 0.125 µg/mL
[1]; read-out: Minimum inhibitory concentration (MIC), E. coli CDC-61 (KPC-3 TEM-1), MHBII
  MIC: 0.25 µg/mL
[1]; read-out: Minimum inhibitory concentration (MIC), E. coli CDC-114 (KPC-3), IDM
  MIC: 0.5 µg/mL
[1]; read-out: Minimum inhibitory concentration (MIC), E. coli CDC-114 (KPC-3), MHBII
  MIC: 4 µg/mL
[1]; read-out: Minimum inhibitory concentration (MIC), E. coli CDC-150 (NDM-5), IDM
  MIC: 4 µg/mL
[1]; read-out: Minimum inhibitory concentration (MIC), E. coli CDC-150 (NDM-5), MHBII
  MIC: 128 µg/mL
[1]; read-out: Minimum inhibitory concentration (MIC), E. coli GUE 131 (NDM-1), IDM
  MIC: 1 µg/mL
[1]; read-out: Minimum inhibitory concentration (MIC), E. coli GUE 131 (NDM-1), MHBII
  MIC: 2 µg/mL
[1]; read-out: Minimum inhibitory concentration (MIC), E. coli SI-151 (VIM-1), IDM
  MIC: 0.125 µg/mL
[1]; read-out: Minimum inhibitory concentration (MIC), E. coli SI-151 (VIM-1), MHBII
  MIC: 0.5 µg/mL
[1]; read-out: Minimum inhibitory concentration (MIC), E. coli SI-152 (NDM-1), IDM
  MIC: 0.125 µg/mL
[1]; read-out: Minimum inhibitory concentration (MIC), E. coli SI-152 (NDM-1), MHBII
  MIC: 0.125 µg/mL
[1]; read-out: Minimum inhibitory concentration (MIC), E. coli SI-155S (VIM-1), IDM
  MIC: 1 µg/mL
[1]; read-out: Minimum inhibitory concentration (MIC), E. coli SI-155S (VIM-1), MHBII
  MIC: 2 µg/mL
[1]; read-out: Minimum inhibitory concentration (MIC), E. coli SI-P026TC (CMY-2, TEM-1), IDM
  MIC: 0.125 µg/mL
[1]; read-out: Minimum inhibitory concentration (MIC), E. coli SI-P026TC (CMY-2, TEM-1), MHBII
  MIC: 0.25 µg/mL
[2]; read-out: Minimum inhibitory concentration (MIC), E. cloacae CDC-93 (KPC), IDM
  MIC: 0.5 µg/mL
[2]; read-out: Minimum inhibitory concentration (MIC), E. cloacae CDC-93 (KPC), MHBII
  MIC: 1 µg/mL
[2]; read-out: Minimum inhibitory concentration (MIC), E. cloacae CDC-161 (IMP), IDM
  MIC: 1 µg/mL
[2]; read-out: Minimum inhibitory concentration (MIC), E. cloacae CDC-161 (IMP), MHBII
  MIC: 16 µg/mL
[2]; read-out: Minimum inhibitory concentration (MIC), E. cloacae Entb239 (p99 AmpC, KPC-3, CTXM-15, GES-1, IMI-1), IDM
  MIC: 2 µg/mL
[2]; read-out: Minimum inhibitory concentration (MIC), E. cloacae Entb239 (p99 AmpC, KPC-3, CTXM-15, GES-1, IMI-1), MHBII
  MIC: 1 µg/mL
[3]; IDM
  MIC50: 0.5 µg/mL
  MIC90: 4 µg/mL
[3]; MHBII
  MIC50: 4 µg/mL
  MIC90: 32 µg/mL
[4]; read-out: Minimum inhibitory concentration (MIC), K. pneummoniae CDC-34 (IMP), IDM
  MIC: 0.125 µg/mL
[4]; read-out: Minimum inhibitory concentration (MIC), K. pneummoniae CDC-34 (IMP), MHBII
  MIC: 2 µg/mL
[4]; read-out: Minimum inhibitory concentration (MIC), K. pneummoniae CDC-40 (VIM), IDM
  MIC: 1 µg/mL
[4]; read-out: Minimum inhibitory concentration (MIC), K. pneummoniae CDC-40 (VIM), MHBII
  MIC: 2 µg/mL
[4]; read-out: Minimum inhibitory concentration (MIC), K. pneummoniae CDC-41 (NDM), IDM
  MIC: 8 µg/mL
[4]; read-out: Minimum inhibitory concentration (MIC), K. pneummoniae CDC-41 (NDM), MHBII
  MIC: 128 µg/mL
[4]; read-out: Minimum inhibitory concentration (MIC), K. pneummoniae CDC-140 (OXA-181), IDM
  MIC: 0.25 µg/mL
[4]; read-out: Minimum inhibitory concentration (MIC), K. pneummoniae CDC-140 (OXA-181), MHBII
  MIC: 0.5 µg/mL
[4]; read-out: Minimum inhibitory concentration (MIC), K. pneummoniae CDC-153 (NDM, OXA-232), IDM
  MIC: 0.06 µg/mL
[4]; read-out: Minimum inhibitory concentration (MIC), K. pneummoniae CDC-153 (NDM, OXA-232), MHBII
  MIC: 32 µg/mL
[4]; read-out: Minimum inhibitory concentration (MIC), K. pneumoniae 847204 (KPC-2), IDM
  MIC: 0.5 µg/mL
[4]; read-out: Minimum inhibitory concentration (MIC), K. pneumoniae 847204 (KPC-2), MHBII
  MIC: 16 µg/mL
[4]; read-out: Minimum inhibitory concentration (MIC), K. pneumoniae 847375 (SHV-12, KPC-2), IDM
  MIC: 2 µg/mL
